{
  "source": "patent US6967244B1",
  "about": "(priority 1988, dated 2005)",
  "key": {"[1]": {"target": "T1, receptor from mouse muscle alpha1, gamma, delta and beta2 mRNAs (Mus musculus, UniProt P02716+P04756+P04760)", "T1 construct": "expressed in transfected cells; host or cells: Xenopus laevis oocytes injected with in vitro transcribed capped RNA", "T1 sequence (P04760 23-519)": "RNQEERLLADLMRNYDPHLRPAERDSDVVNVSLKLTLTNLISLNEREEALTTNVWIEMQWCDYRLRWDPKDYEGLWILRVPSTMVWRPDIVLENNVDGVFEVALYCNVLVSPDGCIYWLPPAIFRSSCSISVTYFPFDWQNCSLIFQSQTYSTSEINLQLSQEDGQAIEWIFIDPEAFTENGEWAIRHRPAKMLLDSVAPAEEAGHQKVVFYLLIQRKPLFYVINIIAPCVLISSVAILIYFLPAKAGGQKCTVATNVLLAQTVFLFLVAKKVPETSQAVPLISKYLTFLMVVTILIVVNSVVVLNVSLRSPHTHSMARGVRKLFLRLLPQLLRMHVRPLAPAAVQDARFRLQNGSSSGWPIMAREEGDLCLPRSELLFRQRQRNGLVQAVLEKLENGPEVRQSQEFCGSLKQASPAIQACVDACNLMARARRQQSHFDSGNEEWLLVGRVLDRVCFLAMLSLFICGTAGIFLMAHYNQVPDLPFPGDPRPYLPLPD", "T1 sequence (P12390 25-500, further chain)": "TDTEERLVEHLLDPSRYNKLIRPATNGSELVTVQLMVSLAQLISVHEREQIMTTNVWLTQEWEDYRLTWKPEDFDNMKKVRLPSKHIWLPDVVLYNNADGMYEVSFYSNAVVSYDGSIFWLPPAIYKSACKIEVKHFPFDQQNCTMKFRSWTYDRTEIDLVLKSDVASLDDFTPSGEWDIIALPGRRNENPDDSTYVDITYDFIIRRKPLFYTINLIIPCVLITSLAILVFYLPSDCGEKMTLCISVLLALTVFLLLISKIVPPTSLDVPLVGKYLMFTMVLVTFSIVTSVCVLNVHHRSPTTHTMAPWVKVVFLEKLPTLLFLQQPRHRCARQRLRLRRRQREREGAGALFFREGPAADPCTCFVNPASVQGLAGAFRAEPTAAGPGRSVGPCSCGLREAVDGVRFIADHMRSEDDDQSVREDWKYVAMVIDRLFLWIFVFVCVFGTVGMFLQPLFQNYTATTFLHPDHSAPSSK", "T1 sequence (P04756 21-457)": "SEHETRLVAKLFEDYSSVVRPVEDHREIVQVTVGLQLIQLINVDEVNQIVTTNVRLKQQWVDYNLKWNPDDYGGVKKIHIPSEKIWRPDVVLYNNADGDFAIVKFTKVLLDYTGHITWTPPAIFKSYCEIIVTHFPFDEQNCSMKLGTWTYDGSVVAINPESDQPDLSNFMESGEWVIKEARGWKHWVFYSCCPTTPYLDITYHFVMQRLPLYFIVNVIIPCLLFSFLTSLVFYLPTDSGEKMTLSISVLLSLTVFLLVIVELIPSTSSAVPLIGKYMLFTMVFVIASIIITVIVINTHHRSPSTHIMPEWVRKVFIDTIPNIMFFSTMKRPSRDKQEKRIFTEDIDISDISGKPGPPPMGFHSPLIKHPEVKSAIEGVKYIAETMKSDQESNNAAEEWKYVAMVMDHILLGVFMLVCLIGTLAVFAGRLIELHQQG", "T1 sequence (P02716 25-520)": "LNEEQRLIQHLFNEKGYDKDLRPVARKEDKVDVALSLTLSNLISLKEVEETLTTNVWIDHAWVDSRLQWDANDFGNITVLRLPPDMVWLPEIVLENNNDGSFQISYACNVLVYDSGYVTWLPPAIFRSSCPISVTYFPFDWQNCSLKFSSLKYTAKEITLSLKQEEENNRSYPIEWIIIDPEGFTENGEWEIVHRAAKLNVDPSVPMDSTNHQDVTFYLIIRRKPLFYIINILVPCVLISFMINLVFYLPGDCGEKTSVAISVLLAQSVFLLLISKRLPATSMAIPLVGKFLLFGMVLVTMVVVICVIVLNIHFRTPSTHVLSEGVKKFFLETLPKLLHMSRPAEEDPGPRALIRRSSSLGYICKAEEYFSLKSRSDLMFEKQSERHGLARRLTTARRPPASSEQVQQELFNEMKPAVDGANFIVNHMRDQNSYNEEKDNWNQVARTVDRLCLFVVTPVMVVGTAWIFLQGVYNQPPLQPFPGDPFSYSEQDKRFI", "assay_type": "cell-based, mouse/rat", "description": "(§1) To examine this hypothesis, a test was made to determine whether the beta2 subunit could substitute for one of the mouse muscle receptor subunits. This was done by injecting into Xenopus oocytes various combinations of mRNA encoding the beta2 subunit and the muscle receptor subunits (α1, β1, […], and δ).\n(§2) Mature Xenopus laevis (Xenopus I, Madison, Wis.) were used as the source of oocytes. Oocytes were treated with 1 mg/ml type II collagenase (Sigma Chemical Co., St. Louis, Mo.) for two hours at room temperature. The ovarian epithelium and follicle cells were then removed by manual dissection. Each oocyte was injected with 0.5 to 5 ng of RNA transcribed and capped with diguanosine triphosphate in vitro, in a 50 nl volume of water. Injected oocytes were incubated in Barth's saline at 20° C. prior to electrophysiological recordings.\n(§3) Recordings were obtained from oocytes placed in a groove at the base of a narrow perspex chamber of 0.5 ml volume. Oocytes were perfused at up to 40 ml/min. with a control solution that consisted of 10 mM HEPES (pH 7.2), 115 mM NaCl, 1.8 mM CaCl2 2.5 mM KCl, and […] atropine. Then oocytes were perfused with agonists or antagonists (added to the control perfusing solution), followed by a wash with control solution. Voltage recordings were made with the bridge circuit of the Dagan 8500 voltage clamp unit on oocytes injected 2–7 days previously. The recordings were obtained at room temperature (20–25° C.) with micropipettes filled with 3M KCl. A resting potential more negative than −30 mV was required for inclusion of a particular oocyte in these studies.\nExperiment 1: Oocytes taken from the same animal were injected at the same time with equivalent amounts of the indicated mRNA combinations. […] Values presented are means±S.E. (n=6).\nValues, presented are means±S.E. (n=5). The complete set of mouse muscle mRNAs were not tested in this experiment."}, "[2]": {"target": "T2, nAChR formed after the injection of alpha2 and beta2 mRNAs (Rattus norvegicus, UniProt P12389+P12390)", "T2 construct": "only the HYP16 clone contains an open reading frame for the entire alpha2 protein; expressed in transfected cells; host or cells: Xenopus oocytes injected with in vitro transcribed mRNA", "T2 sequence (P12390 25-500)": "as the sequence (P12390 25-500, further chain) above", "T2 sequence (P12389 28-511)": "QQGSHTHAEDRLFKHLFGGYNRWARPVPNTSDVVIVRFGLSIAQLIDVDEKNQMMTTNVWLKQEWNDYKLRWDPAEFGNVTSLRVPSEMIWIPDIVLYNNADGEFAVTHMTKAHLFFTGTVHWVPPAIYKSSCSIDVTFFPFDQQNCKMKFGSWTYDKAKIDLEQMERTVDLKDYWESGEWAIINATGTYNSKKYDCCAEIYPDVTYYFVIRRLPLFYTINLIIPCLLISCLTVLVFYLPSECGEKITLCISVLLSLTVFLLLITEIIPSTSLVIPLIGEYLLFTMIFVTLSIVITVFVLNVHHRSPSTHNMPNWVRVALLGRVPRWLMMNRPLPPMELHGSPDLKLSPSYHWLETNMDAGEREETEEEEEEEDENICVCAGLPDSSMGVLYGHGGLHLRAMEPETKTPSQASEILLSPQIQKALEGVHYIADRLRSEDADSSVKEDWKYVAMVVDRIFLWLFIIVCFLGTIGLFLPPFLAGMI", "assay_type": "cell-based", "description": "as §2, §3\nThe PCX49 clone is derived from the beta2 gene and is believed to encode a non-agonist-binding subunit. (Boulter, et al., 1987; Deneris, et al., 1988). […] We tested whether oocytes injected with either alpha2 (n=22) or beta2 (n=21) mRNA alone would produce a depolarizing response to ACh."}, "[3]": {"target": "T3, alpha3 + beta2 neuronal nicotinic acetylcholine receptor (Rattus norvegicus, UniProt P04757+P12390)", "T3 construct": "a complete signal peptide and the entire mature protein; expressed in transfected cells; host or cells: Xenopus laevis oocytes injected with in vitro transcribed capped RNA", "T3 sequence (P12390 25-500)": "as the sequence (P12390 25-500, further chain) above", "T3 sequence (P04757 26-499)": "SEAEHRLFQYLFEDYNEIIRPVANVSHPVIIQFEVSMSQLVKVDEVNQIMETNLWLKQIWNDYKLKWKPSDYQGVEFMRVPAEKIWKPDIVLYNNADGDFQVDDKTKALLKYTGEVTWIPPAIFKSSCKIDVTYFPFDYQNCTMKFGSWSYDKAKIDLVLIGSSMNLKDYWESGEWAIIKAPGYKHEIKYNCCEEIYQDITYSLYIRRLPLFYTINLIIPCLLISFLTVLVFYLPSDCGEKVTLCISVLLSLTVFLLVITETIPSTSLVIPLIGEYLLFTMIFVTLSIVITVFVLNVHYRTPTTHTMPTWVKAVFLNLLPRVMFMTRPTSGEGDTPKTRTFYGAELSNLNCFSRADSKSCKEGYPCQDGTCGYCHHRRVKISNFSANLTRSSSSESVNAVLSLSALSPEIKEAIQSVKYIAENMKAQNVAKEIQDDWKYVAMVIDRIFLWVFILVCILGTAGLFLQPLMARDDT", "assay_type": "cell-based"}, "[4]": {"target": "T4, alpha4 + beta2 neuronal nicotinic acetylcholine receptor (Rattus norvegicus, UniProt P09483+P12390)", "T4 construct": "linker-coded start (ATG and a few residues from a synthetic EcoRI/HindIII linker) (N); expressed in transfected cells; host or cells: Xenopus laevis oocytes injected with in vitro transcribed capped RNA", "T4 sequence (P12390 25-500)": "as the sequence (P12390 25-500, further chain) above", "T4 sequence (P09483 31-630)": "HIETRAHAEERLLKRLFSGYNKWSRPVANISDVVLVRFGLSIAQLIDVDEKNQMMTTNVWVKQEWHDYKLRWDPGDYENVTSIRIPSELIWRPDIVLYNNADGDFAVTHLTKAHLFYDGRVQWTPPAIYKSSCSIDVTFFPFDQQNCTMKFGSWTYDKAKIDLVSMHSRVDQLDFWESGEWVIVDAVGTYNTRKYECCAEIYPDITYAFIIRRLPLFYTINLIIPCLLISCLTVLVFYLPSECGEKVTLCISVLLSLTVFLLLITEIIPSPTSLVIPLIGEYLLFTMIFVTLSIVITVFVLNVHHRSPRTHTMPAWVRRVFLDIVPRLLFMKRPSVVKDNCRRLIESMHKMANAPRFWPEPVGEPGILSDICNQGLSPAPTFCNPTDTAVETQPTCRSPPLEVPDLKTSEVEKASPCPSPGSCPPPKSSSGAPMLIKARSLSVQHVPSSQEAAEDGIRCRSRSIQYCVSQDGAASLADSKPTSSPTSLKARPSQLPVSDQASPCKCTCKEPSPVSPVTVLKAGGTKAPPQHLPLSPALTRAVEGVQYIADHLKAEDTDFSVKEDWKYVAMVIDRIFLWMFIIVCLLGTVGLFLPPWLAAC", "assay_type": "cell-based"}, "PC12 cell receptor": {"target": "T5, PC12 cell receptor (Rattus norvegicus, UniProt P04757)", "T5 construct": "endogenous in cells; host or cells: PC12 (rat pheochromocytoma) cells", "T5 sequence (P04757 26-499)": "as the sequence (P04757 26-499) above", "details": "cited from earlier work"}, "[5]": {"target": "mouse muscle nicotinic acetylcholine receptor α1β1γδ (Mus musculus, UniProt P02716+P04756+P04760)", "sequence (P04760 23-519)": "as the sequence (P04760 23-519) above", "sequence (P09690 24-501, further chain)": "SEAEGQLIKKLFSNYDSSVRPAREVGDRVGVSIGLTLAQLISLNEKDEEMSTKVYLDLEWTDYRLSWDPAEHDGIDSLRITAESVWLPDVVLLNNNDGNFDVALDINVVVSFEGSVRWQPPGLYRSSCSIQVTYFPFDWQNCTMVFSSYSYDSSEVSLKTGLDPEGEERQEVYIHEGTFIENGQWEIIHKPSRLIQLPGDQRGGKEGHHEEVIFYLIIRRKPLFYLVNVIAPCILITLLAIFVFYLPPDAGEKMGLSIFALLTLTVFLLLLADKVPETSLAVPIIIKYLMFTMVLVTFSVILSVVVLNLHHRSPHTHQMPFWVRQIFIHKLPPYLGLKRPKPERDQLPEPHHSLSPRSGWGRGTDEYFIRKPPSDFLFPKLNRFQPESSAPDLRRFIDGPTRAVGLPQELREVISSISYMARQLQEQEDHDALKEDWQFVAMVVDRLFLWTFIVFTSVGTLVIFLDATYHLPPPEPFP", "sequence (P02716 25-520)": "as the sequence (P02716 25-520) above", "sequence (P04756 21-457)": "as the sequence (P04756 21-457) above", "assay_type": "cell-based", "description": "as §1, §2\nRecordings were obtained from oocytes placed in a groove at the base of a narrow perspex chamber of 0.5 ml volume. Oocytes were perfused at up to 40 ml/min. with a control solution that consisted of 10 mM HEPES (pH 7.2), 115 mM NaCl, 1.8 mM CaCl2 2.5 mM KCl, and […] atropine. Then oocytes were perfused with agonists or antagonists (added to the control perfusing solution), followed by a wash with control solution. Voltage recordings were made with the bridge circuit of the Dagan 8500 voltage clamp unit on oocytes injected 2–7 days previously. […]"}},
  "note": "“Also recorded” adds a separate entry of the source. Like-named read-outs stand apart in the source and are kept apart here.",
  "data": [
    {"compound": "COc1cc2c3cc1Oc1cc(ccc1O)C[C@@H]1c4c(cc(OC)c(O)c4Oc4ccc(cc4)C[C@@H]3N(C)CC2)CC[N+]1(C)C", "note": "[d-tubocurarine]", "values": [
      {"measurement": "Block of depolarizations", "setting": "[1]; alpha1, beta2, gamma, delta mRNAs, 100 mM d-tubocurarine", "result": "blocked"},
      {"measurement": "Blockade of the acetylcholine response by antagonist or toxin", "setting": "[2]", "result": "could be blocked"},
      {"measurement": "Δ (mV) Agonist + Antagonist", "setting": "[2]; Ach 5 μM + antagonist 100 μM, n=3", "result": "+2.0 ± 0.4 mV"}
    ]},
    {"compound": "C[N+](C)(C)CCCCCC[N+](C)(C)C", "note": "[hexamethonium]", "values": [
      {"measurement": "Blockade of the acetylcholine response by antagonist or toxin", "setting": "[2]", "result": "could be blocked"},
      {"measurement": "Δ (mV) Agonist + Antagonist", "setting": "[2]; Ach 1 μM + antagonist 100 μM, n=4", "result": "+0.4 ± 0.4 mV"}
    ]},
    {"compound": "CN1CCCC1c1cccnc1", "note": "(centres unmarked) [nicotine]", "values": [
      {"measurement": "Depolarizing response to nicotine", "setting": "[3]", "result": "strong and reproducible membrane depolarizations; also recorded: depolarizing responses"},
      {"measurement": "Depolarizations elicited by nicotine", "setting": "[1]", "result": "depolarizations could be elicited"},
      {"measurement": "Depolarizing response to nicotine", "setting": "[4]", "result": "strong and reproducible membrane depolarizations; also recorded: depolarizing responses"},
      {"measurement": "Depolarizing response to nicotine", "setting": "[2]", "result": "strong and reproducible depolarizing responses; also recorded: elicited a depolarizing response"}
    ]},
    {"compound": "α-bungarotoxin", "values": [
      {"measurement": "Functional blockade of the acetylcholine response by toxin", "setting": "[3]", "result": "neither of these receptors are functionally blocked; also recorded: resistant"},
      {"measurement": "Δ, mV After Toxin", "setting": "[3]", "result": "24.8 ± 3.3", "unit": "mV"},
      {"measurement": "Block of the response to acetylcholine", "setting": "[1]", "result": "completely blocked"},
      {"measurement": "Functional block of the receptor by toxin", "setting": "PC12 cell receptor", "result": "neither of these receptors are functionally blocked"},
      {"measurement": "Functional blockade of the acetylcholine response by toxin", "setting": "[4]", "result": "resistant"},
      {"measurement": "Δ, mV After Toxin", "setting": "[4]", "result": "32.7 ± 6.4", "unit": "mV"},
      {"measurement": "Block of the receptor by toxin", "setting": "[5]", "result": "blocked"},
      {"measurement": "Δ, mV After Toxin", "setting": "[2]", "result": "+32 ± 2 mV"}
    ]}
  ]
}
